One data set relates to Ramos. Nature of the data set: Antiproliferative activity against human Ramos cells assessed as inhibition of cell proliferation measured after 72 hrs by MTT assay. In kind it is functional, cell-based. (In general: Tetrazolium dyes change colour on reduction, which living cells bring about.)
For data set [1], the system named is SK-OV-3. Nature of the data set: Antiproliferative activity against human SK-OV-3 cells assessed as inhibition of cell proliferation measured after 72 hrs by MTT assay. In kind it is functional, cell-based. As to conditions: SK-OV-3, 72 h.
In another data set the test system is K562. Put plainly: Antiproliferative activity against human K562 cells assessed as inhibition of cell proliferation measured after 72 hrs by MTT assay. In kind it is functional, cell-based. As to conditions: K562, 72 h.
Data set [2] has as its target Proto-oncogene tyrosine-protein kinase Src (Homo sapiens) (UniProt P12931). Put plainly: Inhibition of Src kinase phosphorylation at Tyr416/419 residue in human SK-OV-3 cells incubated for 24 hrs by Western blot analysis. In kind it is cell-based. In general terms: Immunoblotting shows a protein as a band on a membrane.
Data set [3] is described as follows: AUC (0 to t) in Sprague-Dawley rat at 5 mg/kg, po measured up to 24 hrs by LC/MS/MS analysis. In kind it is ADME, organism-based. As to conditions: in vivo. The arrangement: route oral, dose 5 mg/kg, time <=24.
Data set [4] can be described thus: Clearance in Sprague-Dawley rat at 5 mg/kg, po measured up to 24 hrs by LC/MS/MS analysis. In kind it is ADME, organism-based. As to conditions: in vivo.
Data set [5] is described as follows: Antitumor activity against mouse C26 cells xenografted in BALB/c mouse assessed as tumor growth inhibition at 10 mg/kg, po measured every 2 days for 10 days by vernier caliper analysis relative to control. In kind it is functional. As to conditions: 240 h, time 10 day, read-out: TGI.
Data set [6] can be described thus: Tmax in Sprague-Dawley rat at 5 mg/kg, po measured up to 24 hrs by LC/MS/MS analysis. In kind it is ADME, organism-based. As to conditions: in vivo.
Data set [7] in a line: Oral bioavailability in Sprague-Dawley rat at 5 mg/kg measured up to 24 hrs by LC/MS/MS analysis. In kind it is ADME, organism-based. As to conditions: in vivo.
Data set [8] can be described thus: Half life in human liver microsomes. In kind it is ADME, Microsome.
Another data set concerns the target Tubulin. Nature of the data set: Binding affinity to tubulin (unknown origin) assessed as dissociation constant by tryptophan based binding assay. In kind it is protein-complex assay, Homo sapiens.
Data set [9] can be described thus: Toxicity in C57 mouse at 40 mg/kg, po administered twice daily. In kind it is organism-based. As to conditions: in vivo.
Data set [10] can be described thus: Half life in Sprague-Dawley rat at 5 mg/kg, po measured up to 24 hrs by LC/MS/MS analysis. In kind it is ADME, organism-based. As to conditions: in vivo.
The target in data set [11] is Focal adhesion kinase 1 (Homo sapiens) (UniProt Q05397). Nature of the data set: Inhibition of FAK phosphorylation at […] residue in human SK-OV-3 cells incubated for 24 hrs by Western blot analysis. In kind it is cell-based.
Chain of Focal adhesion kinase 1 (Homo sapiens) (Q05397 2-1052 limits assumed): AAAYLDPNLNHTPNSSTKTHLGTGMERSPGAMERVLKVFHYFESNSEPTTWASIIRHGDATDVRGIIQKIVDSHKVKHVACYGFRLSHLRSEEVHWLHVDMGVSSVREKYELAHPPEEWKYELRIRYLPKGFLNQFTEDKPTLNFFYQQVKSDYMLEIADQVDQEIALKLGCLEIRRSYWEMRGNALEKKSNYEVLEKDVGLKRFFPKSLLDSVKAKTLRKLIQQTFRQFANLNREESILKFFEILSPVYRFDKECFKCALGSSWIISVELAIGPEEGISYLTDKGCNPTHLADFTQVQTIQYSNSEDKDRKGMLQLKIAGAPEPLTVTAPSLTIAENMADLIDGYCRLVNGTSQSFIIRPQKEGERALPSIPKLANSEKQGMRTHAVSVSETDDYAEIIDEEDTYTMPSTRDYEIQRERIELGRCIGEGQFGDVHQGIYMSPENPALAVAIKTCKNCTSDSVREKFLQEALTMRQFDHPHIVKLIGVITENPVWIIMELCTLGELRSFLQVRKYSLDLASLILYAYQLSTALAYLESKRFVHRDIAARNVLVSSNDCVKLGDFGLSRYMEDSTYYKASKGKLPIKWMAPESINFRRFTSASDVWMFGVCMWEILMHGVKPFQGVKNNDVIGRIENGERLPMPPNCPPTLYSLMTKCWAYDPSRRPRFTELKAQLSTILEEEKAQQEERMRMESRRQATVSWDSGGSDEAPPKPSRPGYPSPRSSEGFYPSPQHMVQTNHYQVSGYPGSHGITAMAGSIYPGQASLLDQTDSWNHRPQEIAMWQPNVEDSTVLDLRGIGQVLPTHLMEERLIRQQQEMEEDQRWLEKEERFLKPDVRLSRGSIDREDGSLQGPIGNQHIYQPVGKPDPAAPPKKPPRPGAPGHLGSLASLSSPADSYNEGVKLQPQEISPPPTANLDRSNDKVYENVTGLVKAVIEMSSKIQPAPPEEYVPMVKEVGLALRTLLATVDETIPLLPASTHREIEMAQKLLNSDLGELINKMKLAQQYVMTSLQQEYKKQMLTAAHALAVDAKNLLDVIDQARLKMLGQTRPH
The nature of data set [12]: Cmax in Sprague-Dawley rat at 5 mg/kg, po measured up to 24 hrs by LC/MS/MS analysis. In kind it is ADME, organism-based. The arrangement: route oral, dose 5 mg/kg, time <=24. As to conditions: in vivo.
A short description of data set [13]: Intrinsic clearance in human liver microsomes. In kind it is ADME, Microsome. For orientation: Liver microsomes are vesicles of endoplasmic reticulum, rich in cytochrome P450 enzymes.
For data set [14], the system named is SK-OV-3. Nature of the data set: Induction of mitotic block in human SK-OV-3 cells at 10 to 30 nM in absence of colchicine measured immediately by flow cytometry analysis. In kind it is functional, cell-based. As to conditions: dose 10-30 nM.

Data on 25 compounds can be found in ChEMBL document CHEMBL5033996, “Design, Synthesis, and Bioactivity Evaluation of Dual-Target Inhibitors of Tubulin and Src Kinase Guided by Crystal Structure” (J Med Chem, 2021).

Structures are written as SMILES. Active and inactive are the calls of the source.

Chain of Proto-oncogene tyrosine-protein kinase Src (Homo sapiens) (P12931 2-536 limits assumed): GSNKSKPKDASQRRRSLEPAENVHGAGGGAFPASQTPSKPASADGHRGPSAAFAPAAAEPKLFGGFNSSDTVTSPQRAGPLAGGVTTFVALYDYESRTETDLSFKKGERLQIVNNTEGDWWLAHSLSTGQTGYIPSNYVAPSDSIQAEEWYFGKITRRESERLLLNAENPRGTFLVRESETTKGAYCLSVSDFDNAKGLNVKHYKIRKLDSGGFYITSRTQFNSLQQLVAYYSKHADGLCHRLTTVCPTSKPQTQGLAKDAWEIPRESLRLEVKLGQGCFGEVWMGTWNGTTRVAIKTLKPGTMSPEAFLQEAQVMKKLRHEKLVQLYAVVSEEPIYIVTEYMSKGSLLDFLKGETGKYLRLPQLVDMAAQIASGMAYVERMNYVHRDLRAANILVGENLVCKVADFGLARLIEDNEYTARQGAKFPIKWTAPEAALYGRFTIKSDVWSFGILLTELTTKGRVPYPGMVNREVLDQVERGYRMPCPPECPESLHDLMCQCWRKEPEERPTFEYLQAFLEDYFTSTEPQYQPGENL

`COC1CCN(CCOc2ccc(-c3ccc(CC(=O)NCc4ccccc4)nc3)cc2)CC1`: the IC50 (in general, the concentration that gives 50% inhibition) is 15.8 nM in the data set with Ramos, 8.1 nM in the data set with SK-OV-3 [1] and 13 nM in the data set with K562.

As to `O=C(Cc1ccc(-c2ccc(OCCCCN3C[C@@H]4C[C@H]3CO4)cc2)cn1)NCc1ccccc1`, the IC50 in the data set on Ramos was determined as 25 nM; in the data set with SK-OV-3 [1], 37 nM; in the data set on K562, 53.2 nM.

In the case of `CC(C)(C)OC(=O)N1CCN(CCOc2ccc(-c3ccc(CC(=O)NCc4ccccc4)nc3)cc2)CC1`, the IC50 in the data set with Ramos was 15.9 nM; with SK-OV-3 [1], 53.3 nM; in the data set on K562, more than 100 nM.

As to `O=C(Cc1ccc(-c2ccc(OCCCCN3CCOCC3)cc2)cn1)NCc1ccccc1`, the IC50 stood at 43.5 nM with Ramos, 10.4 nM in the data set with SK-OV-3 [1] and 29.6 nM in the data set on K562.

For `O=C(Cc1ccc(-c2ccc(OCCN3CCN(S(=O)(=O)C4CC4)CC3)cc2)cn1)NCc1ccccc1`, the IC50 amounted to 4.1 nM with Ramos, 2.4 nM with SK-OV-3 [1] and 5.8 nM in the data set with K562.

With `O=C(Cc1ccc(-c2ccc(OCCN3CC4CCC(C3)O4)cc2)cn1)NCc1ccccc1`, the IC50 in the data set on Ramos came to 3.1 nM; in the data set with SK-OV-3 [1], 3.2 nM; in the data set on K562, 6.2 nM.

As to `O=C(Cc1ccc(-c2ccc(OCCN3CC4CCCCC4C3)cc2)cn1)NCc1ccccc1` (stereo unspecified), the IC50 in the data set with Ramos was 19.7 nM; in the data set with SK-OV-3 [1], 74.9 nM; in the data set with K562, 37.9 nM.

With `O=C(Cc1ccc(-c2ccc(OCCCN3CCOCC3)cc2)cn1)NCc1ccccc1`, the IC50 in the data set with Ramos was found to be 129 nM; with SK-OV-3 [1], 15.6 nM; in the data set with K562 it was 50.9 nM.

Take `CC(C)(C)N1CCN(CCOc2ccc(-c3ccc(CC(=O)NCc4ccccc4)nc3)cc2)CC1`: the half-inhibitory concentration (IC50) was 43.3 nM with Ramos, 119 nM in the data set on SK-OV-3 [1] and more than 100 nM with K562.

Regarding `CC(=O)N1CCN(CCOc2ccc(-c3ccc(CC(=O)NCc4ccccc4)nc3)cc2)CC1`, the IC50 in the data set on Ramos turned out to be 7.3 nM; with SK-OV-3 [1], 4 nM; in the data set with K562, 14.4 nM.

For the compound `O=C(Cc1ccc(-c2ccc(OCCN3CC4CC4C3)cc2)cn1)NCc1ccccc1` (stereo unspecified), the IC50 was 19.6 nM in the data set with Ramos, 9.1 nM in the data set on SK-OV-3 [1] and 29.2 nM with K562.

`CCN1CCN(CCOc2ccc(-c3ccc(CC(=O)NCc4ccccc4)nc3)cc2)CC1`: the IC50 in the data set with Ramos was 36.3 nM; with SK-OV-3 [1], 14.5 nM; in the data set on K562, 39.9 nM.

For the compound `O=C(Cc1ccc(-c2ccc(OCCN3CCC4(CC3)OCCO4)cc2)cn1)NCc1ccccc1`, the IC50 worked out at 23.8 nM with Ramos, 6.7 nM in the data set on SK-OV-3 [1] and 16.5 nM with K562.

As for `O=C(Cc1ccc(-c2ccc(OCCNC3CC3)cc2)cn1)NCc1ccccc1`, the figures for the IC50 in the data set with Ramos, in the data set with SK-OV-3 [1] and with K562 were 98.1 nM, 5.2 nM and 29.3 nM, respectively.

Regarding `O=C(Cc1ccc(-c2ccc(OCCN3CCN(C(=O)C4CC4(F)F)CC3)cc2)cn1)NCc1ccccc1` (stereo unspecified), the results for the IC50 in the data set with Ramos, in the data set on SK-OV-3 [1] and in the data set with K562 were 48.1 nM, 16.8 nM and 53.5 nM, respectively.

With `O=C(Cc1ccc(-c2ccc(OCCN3CCN(C(=O)[C@H]4C[C@@H]4F)CC3)cc2)cn1)NCc1ccccc1`, the IC50 in the data set on Ramos stood at 25.7 nM; in the data set on SK-OV-3 [1], 12.6 nM; with K562, 29.4 nM.

Turning to `O=C(Cc1ccc(-c2ccc(OCCCCN3CC4CCC(C3)O4)cc2)cn1)NCc1ccccc1`, the IC50 in the data set with Ramos is 17.3 nM; in the data set on SK-OV-3 [1], 21.8 nM; in the data set with K562 it was 40.5 nM.

As to `O=C(Cc1ccc(-c2ccc(OCCN3CCC4(CC3)CC4)cc2)cn1)NCc1ccccc1`, the IC50 was more than 100 nM in the data set on Ramos, 97.5 nM in the data set on SK-OV-3 [1] and 34.1 nM in the data set with K562.

For `O=C(Cc1ccc(-c2ccc(OCCN3C[C@@H]4C[C@H]3CO4)cc2)cn1)NCc1ccccc1`, the IC50 is 25.8 nM with Ramos, 19.5 nM in the data set with SK-OV-3 [1] and 16.2 nM in the data set on K562.

Consider `O=C(Cc1ccc(-c2ccc(OCCN3CCN(C(=O)C4CCC4)CC3)cc2)cn1)NCc1ccccc1`, for which the inhibition result in [2] and in data set [11] was “Dose-Dependent Effect” in each case. The AUC(0-t) (as a rule, the area under the concentration-time curve up to a stated or last time point) at 24 h in data set [3] worked out at 383 ng·h/mL. Moreover, the IC50 with Ramos turned out to be 1.5 nM; in the data set with SK-OV-3 [1], 0.59 nM; with K562, 2.3 nM. Also, the CL/F (as a rule, the apparent clearance, not corrected for the fraction that reaches the circulation) in [4] is 209 mL/min/kg. For the same compound, the inhibition in vivo at 10 mg/kg in data set [5] was 32%. Also, the Tmax (commonly the time at which the peak concentration occurs) in data set [6] is 8.4 min. In addition, in data set [7], the bioavailability (in general, the share of a dose that reaches the circulation, judged against a reference dose that is usually intravenous) was 13.3%. The half-life (in general, the time needed for the level to fall by half in the phase considered) is 20.6 min in data set [8] and 139 min in [10]. The Kd (commonly the concentration at which binding is half-saturated) on Tubulin was 630 nM. For the same compound, in data set [9], the Activity result is reported as “Non-Toxic”. Moreover, in data set [12], the Cmax (in general, the highest concentration seen after dosing) turned out to be 484 ng/mL. The compound further gave a CLH in data set [13] of 67.4 mL·min/g.

With `O=C(Cc1ccc(-c2ccc(OCCCN3CC4CCC(C3)O4)cc2)cn1)NCc1ccccc1`, the values for the IC50 in the data set with Ramos, with SK-OV-3 [1] and in the data set with K562 were 8.6 nM, 7.1 nM and 14.6 nM, respectively.

Consider `CC1(C)C2CN(CCOc3ccc(-c4ccc(CC(=O)NCc5ccccc5)nc4)cc3)CC21` (stereo unspecified), for which the values for the IC50 in the data set with Ramos, in the data set with SK-OV-3 [1] and with K562 were 64.4 nM, 165 nM and 41.5 nM, respectively.

In the case of `COc1cc2c(c(OC)c1OC)-c1ccc(OC)c(=O)cc1[C@@H](NC(C)=O)CC2`, the result in the data set with SK-OV-3 [14] was inactive.

`CC1CCCN(CCOc2ccc(-c3ccc(CC(=O)NCc4ccccc4)nc3)cc2)C1` (stereo unspecified): the values for the IC50 in the data set with Ramos, in the data set with SK-OV-3 [1] and in the data set with K562 were more than 100 nM, 57.7 nM and more than 100 nM, respectively.

For `O=C(Cc1ccc(-c2ccc(OCCCN3C[C@@H]4C[C@H]3CO4)cc2)cn1)NCc1ccccc1`, the IC50 is more than 100 nM with Ramos, 80.2 nM in the data set on SK-OV-3 [1] and more than 100 nM in the data set with K562.
